US20250178998A1, “CRYSTAL FORM OF CYCLOHEXENONE COMPOUND” (TAIHO PHARMACEUTICAL CO., LTD., priority 2022, published 2025)

Columns and labels:
[1] = Pharmacokinetics after oral administration to rats; assay type: in vivo, rat (Crl: CD (SD)); settings: male rat, 10 mg/kg
Protocol: The required amount of compound (I) was weighed, and a drug suspension was prepared in 0.5% hydroxypropyl methylcellulose. The number of rats in each group was two, and each drug suspension was administered orally to each male rat (Crl: CD (SD)) using an oral sonde (the dose of the compound was 10 mg/kg). At each blood collection point (0.5, 1, 2, 4, 8, and 24 hours after administration), blood was collected from the jugular vein using a syringe and a needle (the anticoagulant was heparin sodium). The collected blood was centrifuged (13000 rpm, 2 min, 4° C.) to prepare plasma, followed by deproteinization. Thereafter, the concentration of the compound in the plasma was measured by LC/MS/MS (LCMS-8040 (Shimadzu Corporation) or API 4000 (AB Sciex), LC: 30-A and 20-A series (Shimadzu Corporation) or Waters Acquity (Waters Corporation)). A drug suspension was prepared and administered, and the concentration of the compound was measured, in the same manner as described above, except that compound A was used in place of compound (I).

[2] = system: streptozotocin-induced diabetes mellitus (DM) rat model; assay: Drug efficacy in diabetes mellitus (DM) rat model, bladder function by cystometry; assay type: in vivo, SD rats; settings: STZ DM rats, oral twice a day for 4 weeks
Protocol: To examine the effect of the compound in a diabetes mellitus model, bladder function was analyzed by cystometry based on the method of Saitoh et al. (European Journal of Pharmacology 501 (2004) 143-149).
A streptozotocin (STZ) solution obtained by dissolving STZ in a citrate buffer solution (0.1 M citric acid, pH of 4.2) to a concentration of 32.5 mg/mL was prepared, and administered intraperitoneally (65 mg/kg) to SD rats to induce DM models. The same procedure was performed on sham rats except that a citrate buffer solution was used in place of the STZ solution.
On the day after the model production and 4 weeks later, a blood sample was taken from the tail vein with the rats awake to measure the blood glucose level. […] Individuals with a blood glucose level of 300 mg/dL or more on the day after the production of the model and 4 weeks later were determined to be established DM models and used in subsequent operations. […]
A pressure transducer (DX-360, Nihon Kohden Kogyo Co., Ltd.) and an infusion pump (TE-331S, Terumo Corporation) were connected via a three-way valve to the other end of the catheter inserted into the bladder. […] The volume of urination was automatically measured using an electronic balance (GX-200, A&D Company Limited) set directly under the holding cage, and recorded continuously on a computer using a PowerLab (sampling rate: 20/sec). […]

[3] = system: ND3 neuronal cell line; assay: Nerve growth stimulation effect: neurite bearing assay and neurite length assay; assay type: cell-based; settings: for Number of cells (relative cell number, DMSO well = 1) / Neurite length per cell (relative activity, maximum activity of compound (I) = 1) / Proportion of neurite-bearing cells (relative activity, maximum activity of compound (I) = 1): 6 hours
Protocol: To evaluate the nerve growth stimulation effect, neurite bearing assay (proportion of neurite-bearing cells) and neurite length assay (neurite length) were analyzed with reference to the method of Topalli et al. (Brain Research 1030 (2004), pp. 116-124).
An ND3 neuronal cell line (European Collection of Authenticated Cell Cultures) was seeded in a DMEM medium containing 10% fetal bovine serum (0.6×10^4 cells/1 mL) in a 24-well plate. 24 hours later, the medium of seeded cells was removed, and a solution in which compound (I) that was sequentially diluted in dimethyl sulfoxide (DMSO) was adjusted in DMEM containing 0.1% bovine serum albumin so that the DMSO final concentration was 0.1%, was added to cells (evaluation performed in duplicate). After six hours from the addition, the proportion of neurite-bearing cells (the number of cells having a neurite longer than the diameter of the cell body/number of total cells), and the neurite length per cell were analyzed. Further, a test was performed in the same manner as described above, except that compound A was used in place of compound (I). The number of total cells, proportion of neurite-bearing cells, and neurite length per cell were analyzed using a MetaMorph Neurite Outgrowth Application Module (Molecular Devices Japan K. K.). The number of cells was defined as the relative cell number, taking the number of cells per well containing DMSO as 1 (Tables 4 and 5). […] The test was conducted multiple times, and the average value was shown. Data with a number of cells of 0.5 or more was used. Accordingly, if the number of cells was less than 0.5, the neurite length per cell and the proportion of neurite-bearing cells were defined as […]

[4] = Solid stability test (HPLC purity after storage); assay type: physicochemical; settings: for Change in purity / Change in purity (in words) / Increase in related substances / Purity after 4 weeks of storage under sealed conditions at 25° C.: 25° C./60% RH (closed system), 4 weeks; for Purity after 4 weeks of storage under sealed conditions at 25° C. / Purity of compound (I) before storage: HPLC
Protocol: The solid stability of the type I crystal, type II crystal, and type III crystal of compound (I) obtained in Examples 1 to 3 was evaluated after storage for 4 weeks.
Storage condition: 25° C./60% RH (closed system)
Storage amount: about 25 mg
Storage container: glass bottle
Changes in the purity of compound (I) and in the amounts of related substances (the amounts of substances detected other than compound (I)) were analyzed by weighing about 1 mg of the sample, dissolving it in 2 mL of acetonitrile, and accurately measuring 5 μL of this liquid for analysis by HPLC according to the following method. The handling of the apparatus, including data processing, was in accordance with the method and procedure as instructed for each apparatus.
Column: YMC-Triart C8 (4.6×150 mm, 3 μm), produced by YMC Co., Ltd.
Column temperature: 40° C.
Sample concentration: 0.5 mg/mL
Mobile phase A: Liquid mixture of water/acetonitrile (1:1 v/v)
Mobile phase B: Acetonitrile

[5] = Dynamic moisture adsorption/desorption test; assay type: physicochemical; settings: at 95% relative humidity, 25° C.
Protocol: The type I crystal, type II crystal, and type III crystal of compound (I) obtained in Examples 1 to 3 were subjected to a moisture adsorption/desorption test after storage for 4 weeks.
The moisture adsorption/desorption test was performed according to the following conditions.
About 10 mg of the sample was filled in a dedicated quartz holder, and the weight of the sample at each humidity was continuously measured and recorded under the following conditions. The handling of the apparatus, including data processing, was in accordance with the method and procedure as instructed for each apparatus.
Apparatus: VTI-SA+ (TA Instruments, Inc.)
Drying temperature: 25° C.
Temperature increase rate: 1° C./min
Measurement temperature: 25° C.
Relative humidity program: Increase by 5% RH from 5% RH to 95% RH and decrease by 5% RH from 95% RH to 5% RH

| SMILES | Number of cells (relative cell number, DMSO well = 1) ([3]; 1 μM) | Number of cells (relative cell number, DMSO well = 1) ([3]; 3 μM) | Number of cells (relative cell number, DMSO well = 1) ([3]; 5 μM) | Number of cells (relative cell number, DMSO well = 1) ([3]; 10 μM) | Number of cells (relative cell number, DMSO well = 1) ([3]; 30 μM) | Change in purity [4] | Change in purity (in words) [4] | Increase in related substances [4] | Purity after 4 weeks of storage under sealed conditions at 25° C. [4] [%] | Purity of compound (I) before storage [4] [%] | Moisture absorption [5] | also measured |
| --- | --- | --- | --- | --- | --- | --- | --- | --- | --- | --- | --- | --- |
| COCCCCCCCCCCCCCCCC1=C(C)C(=O)CCC1(C)C [Compound (I), 3-(15-methoxypentadecyl)-2,4,4-trimethylcyclohex-2-en-1-one] | 1.06 | 1.01 | 0.94 | 0.92 | 0.96 |  |  |  |  |  |  | Improvement in area under the curve (AUC) as compared to compound A [1]: ≥ 1900 times; Improvement in maximum blood concentration Cmax as compared to compound A [1]: ≥ 1100 times; Drug efficacy (residual urine volume, FIG. 10) as compared to compound A [2]: remarkable drug efficacy; Number of cells (relative cell number, DMSO well = 1) ([3]; 100 μM): 0.92; Nerve growth stimulation effect compared to compound A ([3]; Table 5): excellent nerve growth stimulation effect; Number of relative cells ([3]; added in an amount of 1 to 100 μM): ≥ 0.5 |
| CC1=C(CCCCCCCCCCCCCCCO)C(C)(C)CCC1=O [Compound A, 3-(15-Hydroxypentadecyl)-2,4,4-trimethylcyclohex-2-en-1-one] | 1.03 | 0.92 | 0.92 | 1.0 | 0.19 |  |  |  |  |  |  | Neurite length per cell (relative activity, maximum activity of compound (I) = 1) ([3]; 1 μM): 0.26; Proportion of neurite-bearing cells (relative activity, maximum activity of compound (I) = 1) ([3]; 1 μM): 0.24; Neurite length per cell (relative activity, maximum activity of compound (I) = 1) ([3]; 3 μM): 0.33; Proportion of neurite-bearing cells (relative activity, maximum activity of compound (I) = 1) ([3]; 3 μM): 0.34; Neurite length per cell (relative activity, maximum activity of compound (I) = 1) ([3]; 5 μM): 0.39; Proportion of neurite-bearing cells (relative activity, maximum activity of compound (I) = 1) ([3]; 5 μM): 0.41; Neurite length per cell (relative activity, maximum activity of compound (I) = 1) ([3]; 10 μM): 0.71; Proportion of neurite-bearing cells (relative activity, maximum activity of compound (I) = 1) ([3]; 10 μM): 0.70 |
| COCCCCCCCCCCCCCCCC1=C(C)C(=O)CCC1(C)C [Type I crystal, 3-(15-methoxypentadecyl)-2,4,4-trimethylcyclohex-2-en-1-one] |  |  |  |  |  | +0.01% | almost no change in purity | almost no increase in related substances | 99.71 | 99.70 | almost no moisture absorption |  |
| COCCCCCCCCCCCCCCCC1=C(C)C(=O)CCC1(C)C [Type II crystal, 3-(15-methoxypentadecyl)-2,4,4-trimethylcyclohex-2-en-1-one] |  |  |  |  |  | −0.01% | almost no change in purity | almost no increase in related substances | 99.72 | 99.73 | almost no moisture absorption |  |
| COCCCCCCCCCCCCCCCC1=C(C)C(=O)CCC1(C)C [Type III crystal, 3-(15-methoxypentadecyl)-2,4,4-trimethylcyclohex-2-en-1-one] |  |  |  |  |  |  | almost no change in purity | almost no increase in related substances | 99.77 | 99.77 | almost no moisture absorption |  |
